Assay results reported in paper PMC11394742, “Discovery of Indole–Thiourea Derivatives as Tyrosinase Inhibitors: Synthesis, Biological Evaluation, Kinetic Studies, and In Silico Analysis” (International Journal of Molecular Sciences, 2024).
Several values for one entry are separate records, joined by “and”; a condition that tells them apart may be missing. Equal values may be shown once.

What was measured:
[1] = Stability in aqueous solution (HPLC main peak area); format: physicochemical; details: room temperature, 275 nm
Protocol: Table S1. Gradient elution of the mobile phase for the synthetic compounds using HPLC.
The mobile phase consisted of Solution A (0.1% acetic acid in water) and Solvent B
(acetonitrile), with gradient elution employed throughout the analysis. The flow rate was
Time Solution (A) % Solution (B) %
Table S2. The stability of the synthesized compounds in aqueous solution.
Each compound (2.0 mg) was dissolved in an appropriate volume of water to achieve
an approximate concentration of 1-2 mg/mL. The solutions were then subjected to
ultrasonic treatment, filtered, and analyzed. During stability testing, varying degrees of
To facilitate analysis, these
samples were reconstituted with additional water or treated ultrasonically, filtered, and
absorption at approximately 275 nm, which was selected for detection. The integration
method employed was based on the minimum area approach to accurately determine the
retention time (min) and main peak area (%) of all synthesized compounds. The prepared
samples were stored at room temperature, and their stability in aqueous solution was
evaluated at 0, 2, 4 days, and 2 months using the aforementioned analytical method.
Compounds 0 day 2 day 4 days 2 months RT Area RT Area RT Area RT Area

mushroom tyrosinase = molecular target: T1, mushroom tyrosinase (Agaricus bisporus, UniProt C7FF04); experiment: Tyrosinase inhibition assay; format: biochemical; details: L-tyrosine substrate, 37 °C 10 min, absorbance 490 nm; mean ± SEM
T1 construct: purchased Sigma Chemicals (St. Louis, MO, USA)
Protocol: In the enzymatic assay, a reaction mixture was prepared containing 0.1 M potassium phosphate buffer (pH 6.8), 2 mM L-tyrosine, and 2500 units of tyrosinase. Samples at various concentrations were dispensed as 20 µL aliquots into a 96-well plate. Each well received 130 µL of substrate solution (buffer and L-tyrosine), followed by 5 µL of tyrosinase and 45 µL of buffer solution.

[2] = DPPH free radical-scavenging assay; details: 0.2 mM DPPH in EtOH, 15 min, room temperature, 515 nm; read-out: SC50 ± SD (DPPH radical scavenging)
Protocol: The DPPH radical-scavenging activity was evaluated using Blois’ method. A 0.2 mM solution of DPPH in ethanol (EtOH) was prepared as the working reagent. Each sample (20 μL) was introduced into a 96-well plate, followed by the addition of 180 μL of the DPPH solution. […] The SC50 value, representing the concentration required to scavenge 50% of the DPPH radicals, was determined for each sample. Each measurement was performed in triplicate, and the mean value was reported. Ascorbic acid served as the positive control throughout the experiment.

tyrosinase = details: natural product; cited from earlier work
mTYR = molecular target: T2, mTYR (Agaricus bisporus, UniProt C7FF04); experiment: Kinetic mechanism analysis (Lineweaver–Burk plots); format: biochemical, mushroom
T2 construct: purchased Sigma Chemicals (St. Louis, MO, USA)
Protocol: Due to the potent inhibition of mushroom tyrosinase by compound 4b, kinetic studies were conducted using Lineweaver–Burk double reciprocal plots to elucidate its inhibitory mechanisms. […] concentrations (0 μM, 3 μM, 6 μM, and 12 μM) of the indole derivative 4b in the presence of varying L-tyrosine concentrations (0.1, 0.2, 0.4, 0.6, 0.8, 1 mM) were employed for the kinetic analyses. The Lineweaver–Burk plots generated four distinct lines with different slopes corresponding to each concentration of the derivative. […] Specifically, the KM values were 1.515, 7.846, 15.740, and 23.586 mM at 0, 3, 6, and 12 μM of 4b, respectively.
The kinetic experiment was intended to elucidate the inhibitory behavior of compound 4b against tyrosinase. Four different doses of 4b (0, 3, 6, and 12 µM) were investigated to characterize its inhibition pattern with respect to tyrosinase activity. Various concentrations of L-tyrosine substrate ranging from 0.1 to 1 mM were employed across all experiments. The initial incubation time and reading period mirrored those outlined in the anti-tyrosinase inhibition method. The maximum initial velocity (V₀) was determined from the linear phase of absorbance measurements taken over 5 min following the addition of the enzyme solution. The inhibition mode was further delineated using a Lineweaver–Burk plot, where the reciprocal of velocities (1/V) was plotted against the reciprocal of substrate concentrations utilized.

B16F10 melanoma cells = details: cited from earlier work

T1 sequence (C7FF04 1-392): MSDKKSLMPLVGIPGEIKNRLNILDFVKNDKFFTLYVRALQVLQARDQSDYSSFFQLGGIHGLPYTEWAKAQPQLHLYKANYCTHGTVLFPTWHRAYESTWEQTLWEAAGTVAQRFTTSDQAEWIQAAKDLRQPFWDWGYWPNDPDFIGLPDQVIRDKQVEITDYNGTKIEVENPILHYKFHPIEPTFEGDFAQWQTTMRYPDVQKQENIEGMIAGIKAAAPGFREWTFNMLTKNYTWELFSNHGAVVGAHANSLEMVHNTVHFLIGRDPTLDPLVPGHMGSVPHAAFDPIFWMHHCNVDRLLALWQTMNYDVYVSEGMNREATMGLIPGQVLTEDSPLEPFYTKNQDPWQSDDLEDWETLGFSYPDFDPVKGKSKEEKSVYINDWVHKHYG
T2 sequence (C7FF04 1-392): as above

Row | SMILES | Main peak area (HPLC), stability in aqueous solution ([1]; 0 day) [%] | Main peak area (HPLC), stability in aqueous solution ([1]; 2 months) | Main peak area (HPLC), stability in aqueous solution ([1]; 2 day) [%] | Main peak area (HPLC), stability in aqueous solution ([1]; 4 days) [%] | IC50 (mushroom tyrosinase) [µM] | EC50 [2] [µM] | melting point [°C] | Tyrosinase inhibition activity (tyrosinase) | Inhibition mode (mTYR; Lineweaver–Burk plots, versus L-tyrosine) | Ki (mTYR; at 6 μM of 4b) [µM] | Ki (mTYR; at 12 μM of 4b) [µM] | Vmax (mTYR; consistent across 0-12 μM 4b, L-tyrosine 0.1-1 mM) [mM/min] | Effect on B16F10 melanoma cells (B16F10 melanoma cells)
1 | NC(=S)N/N=C/c1c[nH]c2ccccc12 [Compound 4a, (E)-2-((1H-indol-3-yl)methylene)hydrazine-1-carbothioamide] | 97.61 | 91.27% | 95.84 | 95.76 | 7.9 ± 4.07 | – | – | – | – | – | – | – | –
2 | COc1ccc2c(c1)c(/C=N/NC(N)=S)cn2C [Compound 4h, (E)-2-((5-methoxy-1-methyl-1H-indol-3-yl)methylene)hydrazine-1-carbothioamide] | 96.18 | 90.15% | 95.87 | 95.83 | 163 ± 3.81 | 340.2 ± 3.1 | 203 to 205 | – | – | – | – | – | –
3 | OCCc1c[nH]c2ccccc12 [indole-3-ethanol] | – | – | – | – | – | – | – | significant tyrosinase inhibition activity | – | – | – | – | –
4 | NC(=S)N/N=C/c1c[nH]c2ccc(F)cc12 [Compound 4b, (E)-2-((5-fluoro-1H-indol-3-yl)methylene)hydrazine-1-carbothioamide] | 97.21 | 91.69% | 97.10 | 97.07 | 5.9 ± 2.47 | 544.3 ± 1.5 | – | – | competitive | 0.0568 | 0.0206 | 0.0135 | –
5 | O=C1O[C@H]([C@@H](O)CO)C(O)=C1O [Ascorbic acid, reference compound] | – | – | – | – | – | 37.9 ± 0.3 | – | – | – | – | – | – | –
6 | COc1ccc2[nH]cc(/C=N/NC(N)=S)c2c1 [Compound 4e, (E)-2-((5-methoxy-1H-indol-3-yl)methylene)hydrazine-1-carbothioamide] | 98.00 | 94.97% | 97.87 | 96.87 | 30.1 ± 1.77 | 603.4 ± 1 | – | – | – | – | – | – | –
7 | NC(=S)N/N=C/c1c[nH]c2ccc(Cl)cc12 [Compound 4c, (E)-2-((5-chloro-1H-indol-3-yl)methylene)hydrazine-1-carbothioamide] | 96.24 | 91.89% | 96.04 | 95.74 | 13.2 ± 1.68 | 659.2 ± 0.5 | 212 to 214 | – | – | – | – | – | –
8 | O=C(O)Cc1c[nH]c2ccccc12 [indole-3-acetic acid] | – | – | – | – | – | – | – | – | – | – | – | – | inhibitory effects
9 | O=Cc1c[nH]c2ccccc12 [indole-3-carbaldehyde] | – | – | – | – | – | – | – | significant tyrosinase inhibition activity | – | – | – | – | –
10 | Cn1cc(/C=N/NC(N)=S)c2cc(Br)ccc21 [Compound 4i, (E)-2-((5-bromo-1-methyl-1H-indol-3-yl)methylene)hydrazine-1-carbothioamide] | 90.17 | 65% and 65.06% | 88.52 | 88.22 | 46.3 ± 3.11 | > 1000 | 220 to 222 | – | – | – | – | – | –
11 | O=C(O)c1c[nH]c2ccccc12 [indole-3-carboxylic acid] | – | – | – | – | – | – | – | – | – | – | – | – | inhibitory effects
12 | COC(=O)c1ccc2[nH]cc(/C=N/NC(N)=S)c2c1 [Compound 4j, Methyl(E)-3-((2-carbamothioylhydrazineylidene)methyl)-1H-indole-5-carboxylate] | 97.37 | 90.86% | 97.13 | 96.75 | 103 ± 2.72 | 275.7 ± 2.7 | 247 to 249 | – | – | – | – | – | –
13 | Cn1cc(/C=N/NC(N)=S)c2ccccc21 [Compound 4g, (E)-2-((1-methyl-1H-indol-3-yl)methylene)hydrazine-1-carbothioamide] | 97.47 | 95.20% | 94.12 | 94.58 | 155.5 ± 1.07 | 493.5 ± 0.7 | 199 to 201 | – | – | – | – | – | –
14 | CCn1cc(/C=N/NC(N)=S)c2ccccc21 [Compound 4f, (E)-2-((1-ethyl-1H-indol-3-yl)methylene)hydrazine-1-carbothioamide] | 97.80 | 92.18% | 96.99 | 96.45 | 127 ± 2.85 | > 1000 | 188 to 190 | – | – | – | – | – | –
15 | NC(=S)N/N=C/c1c[nH]c2ccc(Br)cc12 [Compound 4d, (E)-2-((5-bromo-1H-indol-3-yl)methylene)hydrazine-1-carbothioamide] | 97.79 | 91.28% | 97.41 | 96.80 | 14.9 ± 2.86 | 769 ± 2.6 | 215 to 217 | – | – | – | – | – | –
16 | NC(=S)N/N=C/c1c[nH]c2ccc(O)cc12 [Compound 4k, (E)-2-((5-hydroxy-1H-indol-3-yl)methylene)hydrazine-1-carbothioamide] | 96.00 | 94.13% | 95.85 | 95.32 | 43.3 ± 3.46 | 24.6 ± 3.7 | 261 to 263 | – | – | – | – | – | –
